Source: doi:10.1101/2020.07.01.182642v1 (biorxiv, 2020)
Each block holds one compound with its values, some of them ahead of it.

Columns and labels:
Details in all cases: binder
AAK1 = AAK1 (Homo sapiens, UniProt Q2M2I8)
BMX = target: T1, BMX (Homo sapiens, UniProt P51813)
T1 sequence (P51813 1-675): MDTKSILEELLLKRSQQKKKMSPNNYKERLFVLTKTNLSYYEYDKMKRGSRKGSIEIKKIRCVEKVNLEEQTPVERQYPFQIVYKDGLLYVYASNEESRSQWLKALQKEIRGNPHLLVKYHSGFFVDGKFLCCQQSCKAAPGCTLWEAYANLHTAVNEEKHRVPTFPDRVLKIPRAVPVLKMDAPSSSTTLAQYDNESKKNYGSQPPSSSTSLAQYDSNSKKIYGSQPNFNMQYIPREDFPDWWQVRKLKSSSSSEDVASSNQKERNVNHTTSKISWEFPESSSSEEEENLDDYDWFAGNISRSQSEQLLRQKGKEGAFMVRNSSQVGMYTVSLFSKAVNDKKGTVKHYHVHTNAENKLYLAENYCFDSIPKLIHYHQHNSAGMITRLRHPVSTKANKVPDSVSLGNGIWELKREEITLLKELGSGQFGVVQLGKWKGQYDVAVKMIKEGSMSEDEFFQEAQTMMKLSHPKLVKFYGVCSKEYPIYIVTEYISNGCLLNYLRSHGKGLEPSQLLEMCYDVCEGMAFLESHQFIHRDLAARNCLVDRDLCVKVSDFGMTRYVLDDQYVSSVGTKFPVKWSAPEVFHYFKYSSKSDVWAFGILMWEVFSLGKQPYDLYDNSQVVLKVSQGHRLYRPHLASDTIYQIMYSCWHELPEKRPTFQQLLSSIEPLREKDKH

CAMK1D = CAMK1D (Homo sapiens, UniProt Q8IU85)
Sequence of CAMK1D (Q8IU85 whole entry): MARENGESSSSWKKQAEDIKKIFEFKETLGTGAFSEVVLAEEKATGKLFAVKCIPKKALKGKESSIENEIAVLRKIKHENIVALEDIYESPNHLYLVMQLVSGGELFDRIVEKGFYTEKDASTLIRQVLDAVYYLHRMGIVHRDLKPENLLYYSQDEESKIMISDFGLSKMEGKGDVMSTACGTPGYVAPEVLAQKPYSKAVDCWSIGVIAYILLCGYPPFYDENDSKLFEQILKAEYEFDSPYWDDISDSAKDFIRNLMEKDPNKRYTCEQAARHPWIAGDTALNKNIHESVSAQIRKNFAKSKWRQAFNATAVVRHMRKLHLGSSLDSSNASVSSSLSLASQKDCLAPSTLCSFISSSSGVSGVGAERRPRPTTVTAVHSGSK

DYRK2 = target: T2, DYRK2 (Homo sapiens, UniProt Q92630)
T2 sequence (Q92630 1-601): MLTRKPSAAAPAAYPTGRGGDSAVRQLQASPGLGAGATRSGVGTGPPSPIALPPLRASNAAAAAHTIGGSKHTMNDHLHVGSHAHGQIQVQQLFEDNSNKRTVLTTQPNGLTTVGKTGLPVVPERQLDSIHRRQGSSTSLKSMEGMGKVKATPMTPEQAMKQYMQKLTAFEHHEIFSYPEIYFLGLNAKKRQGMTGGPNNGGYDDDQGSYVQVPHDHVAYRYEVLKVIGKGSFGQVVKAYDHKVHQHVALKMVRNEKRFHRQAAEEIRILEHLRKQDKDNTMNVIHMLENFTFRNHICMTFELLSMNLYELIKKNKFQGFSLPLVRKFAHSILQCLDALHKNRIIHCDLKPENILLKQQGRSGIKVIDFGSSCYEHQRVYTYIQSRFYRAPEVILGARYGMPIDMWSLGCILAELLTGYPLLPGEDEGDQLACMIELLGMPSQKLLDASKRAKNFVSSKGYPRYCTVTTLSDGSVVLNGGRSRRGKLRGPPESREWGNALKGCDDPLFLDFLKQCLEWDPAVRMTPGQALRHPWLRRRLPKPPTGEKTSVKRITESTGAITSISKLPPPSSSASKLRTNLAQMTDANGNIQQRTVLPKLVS

LYN = LYN (Homo sapiens, UniProt P07948)
Sequence of LYN (P07948 whole entry): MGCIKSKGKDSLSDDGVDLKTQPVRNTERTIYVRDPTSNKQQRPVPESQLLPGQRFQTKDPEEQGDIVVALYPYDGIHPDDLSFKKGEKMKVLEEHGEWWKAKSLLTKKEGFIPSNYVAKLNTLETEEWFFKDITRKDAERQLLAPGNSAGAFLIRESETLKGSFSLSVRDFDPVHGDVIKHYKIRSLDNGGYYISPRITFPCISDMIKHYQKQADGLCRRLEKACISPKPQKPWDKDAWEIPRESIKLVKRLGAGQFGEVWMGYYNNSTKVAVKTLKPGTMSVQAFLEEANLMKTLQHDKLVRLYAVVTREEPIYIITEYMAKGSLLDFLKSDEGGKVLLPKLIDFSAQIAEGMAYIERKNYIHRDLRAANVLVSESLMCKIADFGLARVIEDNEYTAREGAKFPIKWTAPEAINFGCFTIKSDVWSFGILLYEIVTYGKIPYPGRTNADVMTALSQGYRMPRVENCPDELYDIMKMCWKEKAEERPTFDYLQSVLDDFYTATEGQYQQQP

SLK = SLK (Homo sapiens, UniProt Q9H2G2)
Sequence of SLK (Q9H2G2 whole entry): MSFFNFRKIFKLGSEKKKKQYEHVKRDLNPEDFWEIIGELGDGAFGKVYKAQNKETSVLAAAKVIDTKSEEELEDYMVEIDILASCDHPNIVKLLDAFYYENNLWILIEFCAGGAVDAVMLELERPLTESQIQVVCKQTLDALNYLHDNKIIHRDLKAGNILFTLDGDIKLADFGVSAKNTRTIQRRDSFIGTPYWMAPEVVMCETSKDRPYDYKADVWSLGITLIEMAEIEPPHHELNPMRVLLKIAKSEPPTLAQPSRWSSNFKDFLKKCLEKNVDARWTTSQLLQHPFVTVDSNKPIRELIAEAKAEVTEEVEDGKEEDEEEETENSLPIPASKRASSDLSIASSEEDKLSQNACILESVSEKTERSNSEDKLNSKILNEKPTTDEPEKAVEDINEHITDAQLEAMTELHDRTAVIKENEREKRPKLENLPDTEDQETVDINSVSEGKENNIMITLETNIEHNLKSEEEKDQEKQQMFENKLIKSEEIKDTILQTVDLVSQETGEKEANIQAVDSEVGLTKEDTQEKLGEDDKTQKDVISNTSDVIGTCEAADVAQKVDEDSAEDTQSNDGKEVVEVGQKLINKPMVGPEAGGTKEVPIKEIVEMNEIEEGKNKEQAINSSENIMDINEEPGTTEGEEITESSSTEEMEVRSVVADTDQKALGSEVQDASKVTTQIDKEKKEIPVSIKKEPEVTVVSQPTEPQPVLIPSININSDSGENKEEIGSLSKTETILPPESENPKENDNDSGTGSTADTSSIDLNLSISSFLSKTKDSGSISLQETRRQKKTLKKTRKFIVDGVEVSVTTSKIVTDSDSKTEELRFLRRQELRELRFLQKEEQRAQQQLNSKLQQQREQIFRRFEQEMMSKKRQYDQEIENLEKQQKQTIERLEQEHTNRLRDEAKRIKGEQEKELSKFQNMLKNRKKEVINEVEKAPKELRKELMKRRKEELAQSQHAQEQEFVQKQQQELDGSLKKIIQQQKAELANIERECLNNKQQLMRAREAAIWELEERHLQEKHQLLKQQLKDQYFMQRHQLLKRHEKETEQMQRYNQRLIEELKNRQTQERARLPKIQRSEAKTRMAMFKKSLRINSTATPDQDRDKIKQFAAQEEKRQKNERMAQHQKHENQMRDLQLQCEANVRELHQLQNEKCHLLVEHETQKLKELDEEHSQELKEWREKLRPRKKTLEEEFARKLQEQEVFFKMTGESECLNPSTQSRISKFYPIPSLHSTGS

STK26 = STK26 (Homo sapiens, UniProt Q9P289)
Sequence of STK26 (Q9P289 whole entry): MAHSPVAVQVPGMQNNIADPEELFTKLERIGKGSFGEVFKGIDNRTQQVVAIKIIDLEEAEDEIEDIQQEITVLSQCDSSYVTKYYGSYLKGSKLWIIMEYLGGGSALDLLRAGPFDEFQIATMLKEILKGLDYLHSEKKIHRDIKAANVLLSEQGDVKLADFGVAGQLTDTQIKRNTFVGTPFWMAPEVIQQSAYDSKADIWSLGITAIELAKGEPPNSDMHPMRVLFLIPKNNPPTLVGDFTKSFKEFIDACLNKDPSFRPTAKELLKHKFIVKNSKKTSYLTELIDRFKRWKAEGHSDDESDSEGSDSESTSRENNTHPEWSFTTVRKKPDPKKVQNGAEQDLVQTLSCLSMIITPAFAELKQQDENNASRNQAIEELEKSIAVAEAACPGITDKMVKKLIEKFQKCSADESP

TTK = target: T3, TTK (Homo sapiens, UniProt P33981)
T3 sequence (P33981 1-857): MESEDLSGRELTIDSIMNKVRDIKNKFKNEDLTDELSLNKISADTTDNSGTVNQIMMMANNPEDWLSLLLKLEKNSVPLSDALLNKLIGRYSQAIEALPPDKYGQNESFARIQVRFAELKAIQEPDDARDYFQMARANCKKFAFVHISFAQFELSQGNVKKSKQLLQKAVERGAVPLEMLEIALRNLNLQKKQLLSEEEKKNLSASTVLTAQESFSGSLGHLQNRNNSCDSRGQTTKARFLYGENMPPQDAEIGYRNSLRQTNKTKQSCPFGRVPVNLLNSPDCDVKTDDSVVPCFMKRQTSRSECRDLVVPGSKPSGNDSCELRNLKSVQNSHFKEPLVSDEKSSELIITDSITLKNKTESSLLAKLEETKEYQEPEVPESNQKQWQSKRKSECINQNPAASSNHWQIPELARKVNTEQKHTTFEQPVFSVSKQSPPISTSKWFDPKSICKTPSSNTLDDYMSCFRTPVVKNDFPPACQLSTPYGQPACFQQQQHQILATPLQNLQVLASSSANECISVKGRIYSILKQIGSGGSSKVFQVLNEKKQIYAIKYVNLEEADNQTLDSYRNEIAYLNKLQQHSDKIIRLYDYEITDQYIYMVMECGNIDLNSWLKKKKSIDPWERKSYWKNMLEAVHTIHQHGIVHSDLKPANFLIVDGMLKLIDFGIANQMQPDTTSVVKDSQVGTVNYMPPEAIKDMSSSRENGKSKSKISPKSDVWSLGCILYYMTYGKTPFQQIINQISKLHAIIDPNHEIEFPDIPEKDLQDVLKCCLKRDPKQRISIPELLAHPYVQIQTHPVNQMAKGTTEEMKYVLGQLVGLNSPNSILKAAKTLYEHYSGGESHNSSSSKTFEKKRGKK

Sequence of AAK1 (Q2M2I8 whole entry): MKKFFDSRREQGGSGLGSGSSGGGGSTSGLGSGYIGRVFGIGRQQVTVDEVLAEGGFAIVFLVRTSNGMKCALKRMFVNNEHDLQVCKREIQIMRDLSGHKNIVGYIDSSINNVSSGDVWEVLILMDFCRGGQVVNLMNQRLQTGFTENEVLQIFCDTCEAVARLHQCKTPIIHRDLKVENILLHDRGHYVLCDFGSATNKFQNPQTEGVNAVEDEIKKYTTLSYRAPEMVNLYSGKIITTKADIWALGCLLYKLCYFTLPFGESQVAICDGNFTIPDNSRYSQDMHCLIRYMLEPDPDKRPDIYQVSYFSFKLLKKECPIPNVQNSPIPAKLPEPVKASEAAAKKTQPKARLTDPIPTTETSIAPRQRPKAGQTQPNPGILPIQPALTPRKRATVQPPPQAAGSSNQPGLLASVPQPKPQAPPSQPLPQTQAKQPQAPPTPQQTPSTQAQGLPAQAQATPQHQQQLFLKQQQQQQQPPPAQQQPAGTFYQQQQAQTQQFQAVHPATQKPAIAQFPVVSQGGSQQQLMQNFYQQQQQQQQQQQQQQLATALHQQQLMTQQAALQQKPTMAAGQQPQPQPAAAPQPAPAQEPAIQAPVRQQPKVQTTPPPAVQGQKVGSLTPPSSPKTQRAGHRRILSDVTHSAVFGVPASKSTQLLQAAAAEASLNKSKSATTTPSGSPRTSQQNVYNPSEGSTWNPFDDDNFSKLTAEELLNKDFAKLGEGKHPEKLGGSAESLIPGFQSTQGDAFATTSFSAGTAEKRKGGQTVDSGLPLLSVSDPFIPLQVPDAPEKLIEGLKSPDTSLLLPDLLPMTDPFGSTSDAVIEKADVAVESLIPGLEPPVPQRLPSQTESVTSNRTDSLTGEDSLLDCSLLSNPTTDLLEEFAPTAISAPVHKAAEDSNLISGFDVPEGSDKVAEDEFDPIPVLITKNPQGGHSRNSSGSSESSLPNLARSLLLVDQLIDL

ΔTm inhibitor 2 (AAK1): 1.5 °C | ΔTm inhibitor 2 (BMX): -0.1 °C | ΔTm inhibitor 2 (CAMK1D): 0.0 °C | ΔTm inhibitor 2 (DYRK2): 7.3 °C | ΔTm inhibitor 2 (LYN): 0.1 °C | ΔTm inhibitor 2 (SLK): -0.5 °C | ΔTm inhibitor 2 (STK26): -0.3 °C | ΔTm inhibitor 2 (TTK): 0.5 °C
SMILES: CCN1/C(=C/C(C)=O)Sc2ccc(OC)cc21 [compound 2, TG003]

ΔTm inhibitor 4 (AAK1): 3.4 °C | ΔTm inhibitor 4 (BMX): 0.4 °C | ΔTm inhibitor 4 (CAMK1D): 0.2 °C | ΔTm inhibitor 4 (DYRK2): 8.9 °C | ΔTm inhibitor 4 (LYN): 0.3 °C | ΔTm inhibitor 4 (SLK): 0.5 °C | ΔTm inhibitor 4 (STK26): 0.1 °C | ΔTm inhibitor 4 (TTK): 1.7 °C
SMILES: Nc1nccc(-c2ccc3noc(-c4ccc(Cl)cc4)c3c2)n1 [compound 4, K00972]

ΔTm inhibitor 1 (AAK1): 6.9 °C | ΔTm inhibitor 1 (BMX): 0.4 °C | ΔTm inhibitor 1 (CAMK1D): 0.6 °C | ΔTm inhibitor 1 (DYRK2): 4.1 °C | ΔTm inhibitor 1 (LYN): 2.4 °C | ΔTm inhibitor 1 (SLK): 2.3 °C | ΔTm inhibitor 1 (STK26): 0.3 °C | ΔTm inhibitor 1 (TTK): 2.7 °C
SMILES: CC(=O)c1cccc(-c2cnc3ccc(NCC4CC4)nn23)c1 [compound 1, K00135]
